Structures can show the parent of a compound that is named as a salt.
System: Acinetobacter baumannii ATCC17961
Experiment: Antimicrobial susceptibility testing: 90% growth inhibitory concentration (IC90) determination, Iso-Sensitest broth
Type: cell-based
Conditions: 90% growth inhibitory concentration, Acinetobacter baumannii ATCC17961, Iso-Sensitest broth, OD 600 nm over 16 h; read-out: ATCC17961 IC90
Summary of the method: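 Twofold serial dilutions (e.g. 50 to 0.097 μM final) in Iso-Sensitest broth, inoculum 5×10^(5) CFU/ml, incubated at 35±2° C. OD600 read every 20 minutes over 16 h; IC90 derived from growth inhibition during logarithmic phase.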

Row | Structure (SMILES) | IC90 [nM]
1 | Cc1cc(Nc2nccn3c(-c4ccc(OCC#N)c(F)c4Cl)cnc23)ccc1C(=O)N1CCN(C(=O)[C@@H]2C[C@@H](O)CN2)CC1 [Example 251, 2-[3-chloro-2-fluoro-4-[8-[4-[4-[(2S,4R)-4-hydroxypyrrolidine-2-carbonyl]piperazine-1-carbonyl]-3-methylanilino]imidazo[1,2-a]pyrazin-3-yl]phenoxy]acetonitrile] | 80
2 | COc1ccc(-c2cnc3c(Nc4ccc(C(=O)N5CCC(CN)CC5)c(C)c4)nccn23)cc1 [Example 293, [4-(aminomethyl)piperidin-1-yl]-[4-[[3-(4-methoxyphenyl)imidazo[1,2-a]pyrazin-8-yl]amino]-2-methylphenyl]methanone] | 141

Same assay, conditions: Acinetobacter baumannii, ATCC17961, 16 h, 90% growth inhibitory concentration, Acinetobacter baumannii ATCC17961, Iso-Sensitest broth, OD 600 nm over 16 h; read-out: ATCC17961 IC90

Row | Structure (SMILES) | IC90 [nM]
3 | COc1ccc(-c2cnc3c(Nc4cc(C)c(C(=O)N5CCN(C(=O)[C@@H]6C[C@@H](O)CN6)CC5)c(F)c4)nccn23)c(F)c1F [Example 243, (4-(4-((3-(2,3-difluoro-4-methoxyphenyl)imidazo[1,2-a]pyrazin-8-yl)amino)-2-fluoro-6-methylbenzoyl)piperazin-1-yl)((2S,4R)-4-hydroxypyrrolidin-2-yl)methanone dihydrochloride] | 113
4 | COc1ccc(-c2cnc3c(Nc4cc(F)c(C(=O)N5CCN(C(=O)[C@@H]6C[C@@H](O)CN6)CC5)cc4F)nccn23)c(F)c1F [Example 244, (4-(4-((3-(2,3-difluoro-4-methoxyphenyl)imidazo[1,2-a]pyrazin-8-yl)amino)-2,5-difluorobenzoyl)piperazin-1-yl)((2S,4R)-4-hydroxypyrrolidin-2-yl)methanone] | 2730
5 | C#CCOc1ccc(-c2cnc3c(Nc4ccc(C(=O)N5CCN(C(=O)[C@@H]6C[C@@H](O)CN6)CC5)c(C)c4)nccn23)c(F)c1F [Example 248, [4-[[3-(2,3-difluoro-4-prop-2-ynoxy-phenyl)imidazo[1,2-a]pyrazin-8-yl]amino]-2-methyl-phenyl]-[4-[(2S,4R)-4-hydroxypyrrolidine-2-carbonyl]piperazin-1-yl]methanone] | 74
6 | Cc1cc(Nc2nccn3c(-c4ccc(OCC#N)c(Cl)c4F)cnc23)ccc1C(=O)N1CCN(C(=O)[C@@H]2C[C@@H](O)CN2)CC1 [Example 283, 2-[2-chloro-3-fluoro-4-[8-[4-[4-[(2S,4R)-4-hydroxypyrrolidine-2-carbonyl]piperazine-1-carbonyl]-3-methylanilino]imidazo[1,2-a]pyrazin-3-yl]phenoxy]acetonitrile] | 51
7 | COc1ccc(-c2cnc3c(Nc4ccc(C(=O)N5CCN(C(=O)[C@@]6(O)CNCC[C@@H]6O)CC5)c(C)c4)nccn23)c(F)c1F [Example 287, [4-[[3-(2,3-difluoro-4-methoxyphenyl)imidazo[1,2-a]pyrazin-8-yl]amino]-2-methylphenyl]-[4-[(3R,4S)-3,4-dihydroxypiperidine-3-carbonyl]piperazin-1-yl]methanone] | 80
8 | COc1ccc(-c2cnc3c(Nc4ccc(C(=O)N5CCC(C(=O)NC[C@H](O)[C@@H](O)CN)CC5)c(C)c4)nccn23)c(F)c1F [Example 294, N-[(2S,3S)-4-amino-2,3-dihydroxybutyl]-1-[4-[[3-(2,3-difluoro-4-methoxyphenyl)imidazo[1,2-a]pyrazin-8-yl]amino]-2-methylbenzoyl]piperidine-4-carboxamide] | 160
9 | COc1ccc(-c2cnc3c(Nc4ccc(C(=O)N5CCN(C(=O)[C@]6(O)C[C@@H](O)[C@@H](O)[C@H](O)C6)CC5)c(C)c4)nccn23)c(F)c1F [Example 295, [4-[[3-(2,3-difluoro-4-methoxyphenyl)imidazo[1,2-a]pyrazin-8-yl]amino]-2-methylphenyl]-[4-[(3R,5R)-1,3,4,5-tetrahydroxycyclohexanecar-bonyl]piperazin-1-yl]methanone] | 171
10 | COc1ccc(-c2cnc3c(Nc4ccc(C(=O)N5CCN(S(=O)(=O)[C@H]6CCNC6)CC5)c(C)c4)nccn23)c(F)c1F [Example 297, [4-[[3-(2,3-difluoro-4-methoxyphenyl)imidazo[1,2-a]pyrazin-8-yl]amino]-2-methylphenyl]-[4-[(3S)-pyrrolidin-3-yl]sulfonylpiperazin-1-yl]methanone] | 192
11 | CC[C@]1(O)CN[C@H](C(=O)N2CCN(C(=O)c3ccc(Nc4nccn5c(-c6ccc(OC)c(F)c6)cnc45)cc3C)CC2)C1 [Example 464, [4-[(2S,4R)-4-ethyl-4-hydroxypyrrolidine-2-carbonyl]piperazin-1-yl]-[4-[[3-(3-fluoro-4-methoxyphenyl)imidazo[1,2-a]pyrazin-8-yl]amino]-2-methylphenyl]methanone; for-mic acid] | 137
12 | CCc1cc(Nc2nccn3c(-c4ccc(OC)c(F)c4F)cnc23)ccc1C(=O)N1CCNCC1 [Example 466] | 175

Same assay, conditions: Acinetobacter baumannii, ATCC17961, 16 h, read-out: ATCC17961 IC90

Row | Structure (SMILES) | IC90 [nM]
13 | Cc1cc(Nc2nccn3c(-c4ccc(OC(F)F)cc4)cnc23)ccc1C(=O)N1CCC(C(=O)N[C@H]2CCNC2)CC1 [Example 279, 1-[4-[[3-[4-(difluoromethoxy)phenyl]imi-dazo[1,2-a]pyrazin-8-yl]amino]-2-methylbenzoyl]-N-[(3S)-pyrrolidin-3-yl]piperidine-4-carboxamide; hydrochloride] | 1340
14 | COc1ccc(-c2cnc3c(Nc4ccc(C(=O)N5CCN(C(=O)[C@@H]6C[C@H](C)CN6)CC5)c(C)c4)nccn23)c(F)c1F [Example 282, [4-[[3-(2,3-difluoro-4-methoxyphenyl)imidazo[1,2-a]pyrazin-8-yl]amino]-2-methylphenyl]-[4-[(2S,4S)-4-methylpyrrolidine-2-carbonyl]piperazin-1-yl]methanone; hydrochloride] | 72
15 | COc1ccc(-c2cnc3c(Nc4ccc(C(=O)N5CCN(C(=O)[C@@H]6C[C@@H](CO)CN6)CC5)c(C)c4)nccn23)c(F)c1F [Example 284, [4-[[3-(2,3-difluoro-4-methoxyphenyl)imidazo[1,2-a]pyrazin-8-yl]amino]-2-methylphenyl]-[4-[(2S,4R)-4-(hydroxymethyl)pyrrolidine-2-carbonyl]piperazin-1-yl]methanone; hydrochloride] | 49
16 | COc1ccc(-c2cnc3c(Nc4ccc(C(=O)N5CCN(C(=O)[C@]6(O)CNCC[C@H]6O)CC5)c(C)c4)nccn23)c(F)c1F [Example 288, [4-[[3-(2,3-difluoro-4-methoxyphenyl)imidazo[1,2-a]pyrazin-8-yl]amino]-2-methylphenyl]-[4-[(3S,4R)-3,4-dihydroxypiperidine-3-carbonyl]piperazin-1-yl]methanone; hydrochloride] | 88
17 | COc1ccc(-c2cnc3c(Nc4ccc(C(=O)N5CCN(C(=O)N6CCN[C@@H]([C@@H](C)O)C6)CC5)c(C)c4)nccn23)c(F)c1F [Example 289, [4-[[3-(2,3-difluoro-4-methoxyphenyl)imidazo[1,2-a]pyrazin-8-yl]amino]-2-methylphenyl]-[4-[(3R)-3-[(1R)-1-hydroxyethyl]piperazine-1-carbonyl]piperazin-1-yl]methanone; hydrochloride] | 89
18 | COc1ccc(-c2cnc3c(Nc4ccc(C(=O)N5CCN(C(=O)[C@@]6(O)CNCC[C@@H]6O)CC5)c(C)c4)nccn23)c(F)c1F [Example 290, [4-[[3-(2,3-difluoro-4-methoxyphenyl)imidazo[1,2-a]pyrazin-8-yl]amino]-2-methylphenyl]-[4-[(3R,4S)-3,4-dihydroxypiperidine-3-carbonyl]piperazin-1-yl]methanone; hydrochloride] | 109
19 | COc1ccc(-c2cnc3c(Nc4ccc(C(=O)N5CCC(C(=O)N6CCN[C@@H]([C@@H](C)O)C6)CC5)c(C)c4)nccn23)c(F)c1F [Example 292, [4-[[3-(2,3-difluoro-4-methoxyphenyl)imidazo[1,2-a]pyrazin-8-yl]amino]-2-methylphenyl]-[4-[(3R)-3-[(1R)-1-hydroxyethyl]piperazine-1-carbonyl]piperidin-1-yl]methanone; hydrochloride] | 123
20 | COc1ccc(-c2cnc3c(Nc4ccc(C(=O)N5CCN(C(=O)[C@@H]6C[C@](C)(O)CN6)CC5)c(C)c4)nccn23)c(F)c1F [Example 455, [4-[[3-(2,3-difluoro-4-methoxyphenyl)imidazo[1,2-a]pyrazin-8-yl]amino]-2-methylphenyl]-[4-[(2S,4S)-4-hydroxy-4-methylpyrrolidine-2-carbonyl]piperazin-1-yl]methanone; formic acid] | 66
21 | COc1ccc(-c2cnc3c(Nc4ccc(C(=O)N5CCN(C(=O)[C@@H]6C[C@](C)(O)CN6)CC5)c(C)c4)nccn23)cc1F [Example 461, [4-[[3-(3-fluoro-4-methoxyphenyl)imidazo[1,2-a]pyrazin-8-yl]amino]-2-methylphenyl]-[4-[(2S,4S)-4-hydroxy-4-methylpyrrolidine-2-carbonyl]piperazin-1-yl]methanone; formic acid] | 148
22 | COc1ccc(-c2cnc3c(Nc4ccc(C(=O)N5CCN(C(=O)[C@@H]6C[C@@](C)(O)CN6)CC5)c(C)c4)nccn23)cc1F [Example 463, [4-[[3-(3-fluoro-4-methoxyphenyl)imidazo[1,2-a]pyrazin-8-yl]amino]-2-methylphenyl]-[4-[(2S,4R)-4-hydroxy-4-methylpyrrolidine-2-carbonyl]piperazin-1-yl]methanone; formic acid] | 132
23 | COc1ccc(-c2cnc3c(Nc4ccc(C(=O)N5CCN(C(=O)CC[C@H](NC(=O)[C@@H](N)CCCCN)C(=O)O)CC5)c(C)c4)nccn23)c(F)c1F [Example 531, (2S)-2-[[(2S)-2,6-diaminohexanoyl]amino]-5-[4-[4-[[3-(2,3-difluoro-4-methoxyphenyl)imidazo[1,2-a]pyrazin-8-yl]amino]-2-methylbenzoyl]piperazin-1-yl]-5-oxopentanoic acid; hydrochloride] | 686

From patent publication US20230011869A1 (Hoffmann-La Roche Inc., priority 2018, published 2023)
